Reference: patent US20180244611A1, “Modulators of the Cystic Fibrosis Transmembrane Conductance Regulator Protein and Methods of Use” (AbbVie S.à.r.l., priority 2017, published 2018)

Experiments:
F508delCFTR [1] = molecular target: T1, F508delCFTR (Homo sapiens, UniProt P13569, DEL508-508); test: Cell Surface Expression-Horse Radish Peroxidase (CSE-HRP) assay, test compound without co-corrector; assay type: cell-based; settings: for Emax: maximum at any tested concentration, without co-corrector; for EC50: test compound without co-corrector;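 as to Emax: percent of on-plate 2 µM positive control corrector response over DMSO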
T1 construct: expressed in transfected cells; host or cells: CFBE41o- human lung-derived epithelial cells (CFBE41o-F508delCFTR-HRP), doxycycline-inducible
Outline: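 CFBE41o- cells expressing F508delCFTR with HRP in the fourth exofacial loop, induced with 0.5 μg/mL doxycycline for 72 h at 37° C, then exposed to compound alone for 18-24 h at 33° C, 8-point 3-fold series from 20 μM. Surface HRP read by luminol luminescence, normalized to positive corrector control versus DMSO; EC50 from variable-slope sigmoidal fit of three replicate plates.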

F508delCFTR [2] = molecular target: T1, F508delCFTR; test: Cell Surface Expression-Horse Radish Peroxidase (CSE-HRP) assay, test compound with co-corrector; assay type: cell-based; settings: for Maximum % activity (with co-corrector): maximum at any tested concentration;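 as to Maximum % activity (with co-corrector): percent of 2 µM positive control corrector over DMSO; co-corrector is that same compound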
Outline: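 CFBE41o- cells expressing F508delCFTR with HRP in the fourth exofacial loop, induced with 0.5 μg/mL doxycycline for 72 h, then treated 18-24 h at 33° C. with compound (8 points, top 20 μM, 3-fold) plus 2 μM co-corrector. Surface HRP read by luminol luminescence; activity normalised to positive control, EC50 from variable-slope sigmoidal fit.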

[3] = normalized to positive control, with 2 μM co-corrector
[4] = normalized to on-plate positive control
[5] = CSE-HRP assay, test compound with 2 μM co-corrector
[6] = normalized to on-plate positive control, with 2 μM co-corrector

T1 sequence (P13569 with tags, fused parts or gaps DEL508-508): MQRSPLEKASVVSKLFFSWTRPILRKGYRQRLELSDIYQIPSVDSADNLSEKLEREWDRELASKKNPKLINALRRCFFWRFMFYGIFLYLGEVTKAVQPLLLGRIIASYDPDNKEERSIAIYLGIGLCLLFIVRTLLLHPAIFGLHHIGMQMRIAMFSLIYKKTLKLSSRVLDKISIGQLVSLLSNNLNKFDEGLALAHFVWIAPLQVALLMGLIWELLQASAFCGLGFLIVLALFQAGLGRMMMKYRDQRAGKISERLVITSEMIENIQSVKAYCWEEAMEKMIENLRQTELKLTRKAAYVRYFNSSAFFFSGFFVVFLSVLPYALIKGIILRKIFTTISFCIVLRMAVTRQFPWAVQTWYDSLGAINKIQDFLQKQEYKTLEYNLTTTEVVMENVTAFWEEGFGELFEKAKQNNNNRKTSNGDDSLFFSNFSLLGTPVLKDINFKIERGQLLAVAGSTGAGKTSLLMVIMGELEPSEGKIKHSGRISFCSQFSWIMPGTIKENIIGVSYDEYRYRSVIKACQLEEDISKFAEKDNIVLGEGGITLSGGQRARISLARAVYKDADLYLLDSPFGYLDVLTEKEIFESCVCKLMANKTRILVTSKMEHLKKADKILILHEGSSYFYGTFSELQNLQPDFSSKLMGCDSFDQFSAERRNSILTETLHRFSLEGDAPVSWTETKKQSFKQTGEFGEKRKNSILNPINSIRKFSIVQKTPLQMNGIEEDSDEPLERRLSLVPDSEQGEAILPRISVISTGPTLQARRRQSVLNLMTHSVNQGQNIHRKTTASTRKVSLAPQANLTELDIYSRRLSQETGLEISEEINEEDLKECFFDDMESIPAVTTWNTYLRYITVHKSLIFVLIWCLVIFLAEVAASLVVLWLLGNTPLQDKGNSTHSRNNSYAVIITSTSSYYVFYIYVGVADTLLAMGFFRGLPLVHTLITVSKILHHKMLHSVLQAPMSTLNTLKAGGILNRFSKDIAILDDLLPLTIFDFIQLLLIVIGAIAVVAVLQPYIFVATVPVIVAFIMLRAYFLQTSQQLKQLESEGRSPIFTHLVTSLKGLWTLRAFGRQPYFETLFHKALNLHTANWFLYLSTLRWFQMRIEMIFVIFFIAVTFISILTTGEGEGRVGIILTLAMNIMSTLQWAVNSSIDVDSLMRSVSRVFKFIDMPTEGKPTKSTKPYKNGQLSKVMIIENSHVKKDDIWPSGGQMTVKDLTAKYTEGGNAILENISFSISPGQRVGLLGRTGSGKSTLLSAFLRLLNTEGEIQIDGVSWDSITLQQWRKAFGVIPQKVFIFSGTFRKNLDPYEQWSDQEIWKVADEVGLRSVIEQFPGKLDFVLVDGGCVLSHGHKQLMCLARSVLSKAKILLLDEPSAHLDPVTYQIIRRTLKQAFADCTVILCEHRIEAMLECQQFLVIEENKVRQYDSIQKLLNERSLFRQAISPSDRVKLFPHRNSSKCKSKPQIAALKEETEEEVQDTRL

| Emax (F508delCFTR [1]; normalized to positive control) | EC50 (F508delCFTR [1]) | Maximum % activity (with co-corrector) (F508delCFTR [2]; [3]) | EC50 (F508delCFTR [2]; with 2 μM co-corrector) | EC50 (F508delCFTR [1]; CSE-HRP assay) | Emax (F508delCFTR [1]; [4]) | EC50 (F508delCFTR [2]; [5]) | Maximum % activity (with co-corrector) (F508delCFTR [2]; [6]) | Structure (SMILES) |
| --- | --- | --- | --- | --- | --- | --- | --- | --- |
| 50 to 150% | 3 to 10 µM | ++ (≥150 and <350) | < 3 µM | – | – | – | – | Cc1ccccc1S(=O)(=O)NC(=O)C1CCc2c(-c3ccc(N4CCCCC4)nc3)cccc21 (centres unmarked) [III-86] |
| < 50% | ≥ 10 µM | + (<150) | ≥ 10 µM | – | – | – | – | Cc1ccccc1S(=O)(=O)NC(=O)C1CCc2c(-c3ccc(N4CCN(C)CC4)nc3)cccc21 (centres unmarked) [III-87] |
| < 50% | ≥ 10 µM | + (<150) | ≥ 10 µM | – | – | – | – | Cc1ccccc1S(=O)(=O)NC(=O)C1CCc2c(-c3cccnc3C)cccc21 (centres unmarked) [III-88] |
| < 50% | ≥ 10 µM | ++ (≥150 and <350) | 3 to 10 µM | – | – | – | – | Cc1ccccc1S(=O)(=O)NC(=O)C1CCc2c(-c3ccc(F)nc3)cccc21 (centres unmarked) [III-89] |
| < 50% | ≥ 10 µM | + (<150) | ≥ 10 µM | – | – | – | – | Cc1ccccc1S(=O)(=O)NC(=O)C1CCc2c(-c3ccc(N(C)C)nc3)cccc21 (centres unmarked) [III-90] |
| – | – | – | – | ≥ 10 µM | < 50% | ≥ 10 µM | + (<150) | Cc1ccccc1S(=O)(=O)NC(=O)C1CCc2c(-c3cncc(F)c3)cccc21 (centres unmarked) [III-91] |
| – | – | – | – | ≥ 10 µM | < 50% | ≥ 10 µM | + (<150) | Cc1cncc(-c2cccc3c2CCC3C(=O)NS(=O)(=O)c2ccccc2C)c1 (centres unmarked) [III-92] |
| – | – | – | – | ≥ 10 µM | < 50% | 3 to 10 µM | ++ (≥150 and <350) | Cc1ccccc1S(=O)(=O)NC(=O)C1CCc2c(-c3ccnc(F)c3)cccc21 (centres unmarked) [III-93] |
| – | – | – | – | ≥ 10 µM | < 50% | 3 to 10 µM | ++ (≥150 and <350) | Cc1ccccc1S(=O)(=O)NC(=O)C1CCc2c(-c3ccncc3F)cccc21 (centres unmarked) [III-94] |
| – | – | – | – | ≥ 10 µM | < 50% | ≥ 10 µM | + (<150) | Cc1cnccc1-c1cccc2c1CCC2C(=O)NS(=O)(=O)c1ccccc1C (centres unmarked) [III-95] |
| – | – | – | – | ≥ 10 µM | < 50% | ≥ 10 µM | + (<150) | Cc1cc(-c2cccc3c2CCC3C(=O)NS(=O)(=O)c2ccccc2C)ccn1 (centres unmarked) [III-96] |
| – | – | – | – | ≥ 10 µM | < 50% | ≥ 10 µM | + (<150) | Cc1ccccc1S(=O)(=O)NC(=O)C1CCc2c(-c3cn[nH]c3)cccc21 (centres unmarked) [III-97] |
| – | – | – | – | ≥ 10 µM | < 50% | ≥ 10 µM | + (<150) | Cc1ccccc1S(=O)(=O)NC(=O)C1CCc2c(-c3ccn[nH]3)cccc21 (centres unmarked) [III-98] |
| – | – | – | – | 3 to 10 µM | 50 to 150% | 3 to 10 µM | +++ (≥350) | Cc1ccccc1S(=O)(=O)NC(=O)C1CCc2c(-c3ccsc3)cccc21 (centres unmarked) [III-99] |

The remaining lines, values behind:

| Structure (SMILES) | Emax (F508delCFTR [1]; normalized to positive control) | EC50 (F508delCFTR [1]) | Maximum % activity (with co-corrector) (F508delCFTR [2]; [3]) | EC50 (F508delCFTR [2]; with 2 μM co-corrector) | EC50 (F508delCFTR [1]; CSE-HRP assay) | Emax (F508delCFTR [1]; [4]) | EC50 (F508delCFTR [2]; [5]) | Maximum % activity (with co-corrector) (F508delCFTR [2]; [6]) |
| --- | --- | --- | --- | --- | --- | --- | --- | --- |
| COc1cccc2c1CCC2C(=O)NS(=O)(=O)c1ccc(N2CCN(CC[C@@H]3OCCc4ccccc43)CC2)cc1 (some centres unmarked) [III-55] | < 50% | ≥ 10 µM | + (<150) | 3 to 10 µM | – | – | – | – |
| COc1cccc2c1CCC2C(=O)NS(=O)(=O)c1ccccc1C(=O)OC(C)C (centres unmarked) [III-56] | 50 to 150% | 3 to 10 µM | +++ (≥350) | 3 to 10 µM | – | – | – | – |
| COc1cccc2c1CCC2C(=O)NS(=O)(=O)c1ccc(NCCC(C)(C)O)c([N+](=O)[O-])c1 (centres unmarked) [III-57] | < 50% | ≥ 10 µM | + (<150) | ≥ 10 µM | – | – | – | – |
| COc1cccc2c1CCC2C(=O)NS(=O)(=O)c1cc(-c2nc3c([nH]2)c(=O)n(C)c(=O)n3C)ccc1Cl (centres unmarked) [III-58] | < 50% | 3 to 10 µM | ++ (≥150 and <350) | 3 to 10 µM | – | – | – | – |
| COc1cccc2c1CCC2C(=O)NS(=O)(=O)c1nc2c(c(=O)n(C)c(=O)n2C)n1Cc1ccc(Cl)cc1 (centres unmarked) [III-59] | < 50% | ≥ 10 µM | + (<150) | ≥ 10 µM | – | – | – | – |
| COc1cccc2c1CCC2C(=O)NS(=O)(=O)c1nc2c(=O)n(C)c(=O)n(C)c2n1Cc1ccccc1 (centres unmarked) [III-60] | < 50% | ≥ 10 µM | + (<150) | ≥ 10 µM | – | – | – | – |
| COc1cccc2c1CCC2C(=O)NS(=O)(=O)c1ccc(CN(C)C)cc1 (centres unmarked) [III-61] | < 50% | ≥ 10 µM | + (<150) | ≥ 10 µM | – | – | – | – |
| COc1cccc2c1CCC2C(=O)NS(=O)(=O)c1cccc(F)c1C#N (centres unmarked) [III-62] | < 50% | ≥ 10 µM | + (<150) | 3 to 10 µM | – | – | – | – |
| COc1cccc2c1CCC2C(=O)NS(=O)(=O)c1ccc(O)c([N+](=O)[O-])c1 (centres unmarked) [III-63] | < 50% | ≥ 10 µM | + (<150) | ≥ 10 µM | – | – | – | – |
| COc1cccc2c1CCC2C(=O)NS(=O)(=O)c1cccc(C#N)c1 (centres unmarked) [III-64] | < 50% | ≥ 10 µM | + (<150) | ≥ 10 µM | – | – | – | – |
| COc1cccc2c1CCC2C(=O)NS(=O)(=O)c1cncc(Br)c1 (centres unmarked) [III-65] | < 50% | ≥ 10 µM | + (<150) | ≥ 10 µM | – | – | – | – |
| COc1cccc2c1CCC2C(=O)NS(=O)(=O)c1ccc(O)nc1 (centres unmarked) [III-66] | < 50% | ≥ 10 µM | + (<150) | ≥ 10 µM | – | – | – | – |
| COc1cccc2c1CCC2C(=O)NS(=O)(=O)c1c(C(=O)OC(C)(C)C)c(C)nn1C (centres unmarked) [III-68] | < 50% | ≥ 10 µM | + (<150) | ≥ 10 µM | – | – | – | – |
| COc1cccc2c1CCC2C(=O)NS(=O)(=O)c1c(CO)c(C)nn1C (centres unmarked) [III-69] | < 50% | ≥ 10 µM | + (<150) | ≥ 10 µM | – | – | – | – |
| COc1cccc2c1CCC2C(=O)NS(=O)(=O)c1cccc(Cl)c1F (centres unmarked) [III-70] | < 50% | ≥ 10 µM | + (<150) | ≥ 10 µM | – | – | – | – |
| COc1cccc2c1CCC2C(=O)NS(=O)(=O)c1c(F)cccc1F (centres unmarked) [III-71] | < 50% | ≥ 10 µM | ++ (≥150 and <350) | 3 to 10 µM | – | – | – | – |
| COc1ccc2c(c1OC)CCC2C(=O)NS(=O)(=O)c1ccccc1C (centres unmarked) [III-72] | < 50% | ≥ 10 µM | + (<150) | ≥ 10 µM | – | – | – | – |
| COc1cccc2c1CCC2C(=O)NS(=O)(=O)c1cc(Cl)ccc1F (centres unmarked) [III-73] | < 50% | ≥ 10 µM | + (<150) | ≥ 10 µM | – | – | – | – |
| COc1cccc2c1CCC2C(=O)NS(=O)(=O)c1cc(F)ccc1F (centres unmarked) [III-74] | < 50% | ≥ 10 µM | + (<150) | ≥ 10 µM | – | – | – | – |
| COc1cccc2c1CCC2C(=O)NS(=O)(=O)c1cc(F)ccc1Cl (centres unmarked) [III-75] | < 50% | ≥ 10 µM | + (<150) | ≥ 10 µM | – | – | – | – |
| COc1cccc2c1CCC2C(=O)NS(=O)(=O)c1c(Cl)cccc1Cl (centres unmarked) [III-76] | < 50% | ≥ 10 µM | + (<150) | ≥ 10 µM | – | – | – | – |
| COc1cccc2c1CCC2C(=O)NS(=O)(=O)c1ccc(F)cc1F (centres unmarked) [III-77] | < 50% | ≥ 10 µM | + (<150) | ≥ 10 µM | – | – | – | – |
| COCCn1cc(S(=O)(=O)NC(=O)C2CCc3c(OC)cccc32)cn1 (centres unmarked) [III-78] | < 50% | ≥ 10 µM | + (<150) | ≥ 10 µM | – | – | – | – |
| COc1cccc2c1CCC2C(=O)NS(=O)(=O)c1c(C)noc1C (centres unmarked) [III-79] | < 50% | ≥ 10 µM | + (<150) | ≥ 10 µM | – | – | – | – |
| COc1cccc2c1CCC2C(=O)NS(=O)(=O)c1sc(C)nc1C (centres unmarked) [III-80] | < 50% | ≥ 10 µM | + (<150) | ≥ 10 µM | – | – | – | – |
| COc1cccc2c1CCC2C(=O)NS(=O)(=O)c1cccnc1 (centres unmarked) [III-81] | < 50% | ≥ 10 µM | + (<150) | ≥ 10 µM | – | – | – | – |
| COc1cccc2c1CCC2C(=O)NS(=O)(=O)c1ncccc1C(=O)N(C)C (centres unmarked) [III-82] | < 50% | ≥ 10 µM | + (<150) | ≥ 10 µM | – | – | – | – |
| COc1cccc2c1CCC2C(=O)NS(=O)(=O)c1cccnc1C#N (centres unmarked) [III-83] | < 50% | ≥ 10 µM | + (<150) | ≥ 10 µM | – | – | – | – |
| COc1cccc2c1CCC2C(=O)NS(=O)(=O)c1ccccn1 (centres unmarked) [III-84] | < 50% | ≥ 10 µM | + (<150) | ≥ 10 µM | – | – | – | – |
| COc1ccc(-c2cccc3c2CCC3C(=O)NS(=O)(=O)c2ccccc2C)cn1 (centres unmarked) [III-85] | < 50% | ≥ 10 µM | ++ (≥150 and <350) | 3 to 10 µM | – | – | – | – |
